“And” between values parts separate entries of the source, which are not always exact repeats. Equal entries are not always repeated. Ends that are not written are not given here.
Tests used:
C2C12 cells = assay: C2C12 cell proliferation assay (CCK-8, OD at 450 nm); type: cell-based; conditions: for cell concentration compared with CN group: co-incubated 48 h, 0.4 μg/ml; for OD value, Average value / OD value, Repeated three groups: sample 0.4 μg/ml, OD 450 nm; for OD value, Repeated three groups: single replicates
Experimental: The C2C12 cells in a logarithmic growth phase were inoculated into a 96-well plate; the cells were divided into 4 groups, namely a blank control group (CN, without any peptide fractions), a pea-derived peptide S1 group, a pea-derived peptide S2 group, and a pea-derived peptide S3 group; each treatment group was set to duplicate 3 wells, with approximately 1,000 cells per well. Except for the blank control group, 0.4 μg/ml pea-derived peptide was added to the cells, and 10 μL of a CCK-8 solution was added separately at 0 h, 12 h, 24 h, 36 h, and 48 h, and mixed well; the cells were incubated in a CO2 incubator at 37° C. for 2 h, an OD value was measured using a microplate reader at 450 nm, and a cell proliferation curve was drawn.
The C2C12 cells in a logarithmic growth phase were inoculated into a 96-well plate; the cells were divided into 6 groups, namely a blank control group (CN, without any peptide fractions), and sample groups including a pea-derived peptide PP1 group (PP1), a pea-derived peptide PP2 group (PP2), a pea-derived peptide PP3 group (PP3), a pea-derived peptide PP4 group (PP4), and a pea-derived peptide PP5 group (PP5). Each treatment group was set to 3 duplicate wells, with approximately 1,000 cells per well. A sample having a concentration of 0.4 μg/ml was added to the cells of the sample groups, and 10 μL of a CCK-8 solution was added separately at 0 h, 12 h, 24 h, 36 h, and 48 h, and mixed well; the cells were incubated in a CO2 incubator at 37° C. for 2 h, an OD value was measured using a microplate reader at 450 nm, and a cell proliferation curve was drawn.

[1] = system: IGF-1R, cyclinD1, CDK6, p-AMPK in C2C12 cells; assay: Western blot of growth and proliferation-related proteins in C2C12 cells; type: cell-based; conditions: skeletal muscle cells treated with one peptide alone
Text: The C2C12 cells in a logarithmic growth phase were inoculated into a 6-well plate at 1×10^6; the cells were divided into 6 groups, namely a blank control group (CN), and sample groups including a pea-derived peptide PP1 group (PP1), a pea-derived peptide PP2 group (PP2), a pea-derived peptide PP3 group (PP3), a pea-derived peptide PP4 group (PP4), and a pea-derived peptide PP5 group (PP5). Each treatment group was set to duplicate 3 wells, with approximately 1,000,000 cells per well; a sample having a concentration of 0.4 μg/ml was added to the cells of the sample groups, and each treatment group was set to 3 duplicate wells. After co-incubating for 24 h, the cells in different treatment groups were collected, fully lysed, and a total protein was extracted, and a protein concentration was determined using a nucleic acid protein analyzer. The protein sample was mixed with a loading buffer thoroughly, denatured at 100° C. for 10 min, and subjected to SDS-PAGE gel electrophoresis. The program included: 80 V for 30 min; 100 V for 80 min. Membrane transfer was conducted, where the membrane transfer procedure was conducted at 100 V for 90 min. After transferring, the sample was placed in a 5% skimmed milk powder, and sealed in a shaker at room temperature for 1 h. GAPDH antibody (1:2000) and PCNA antibody, AMPK antibody, p-AMPK antibody, IGF-1 antibody (1:1000) were added separately, and allowed to stand at 4° C. overnight. A secondary antibody (1:20000) was added, and incubated at room temperature for 1 h. The membrane was washed 3 times with TBST, and a Pierce-enhanced luminescent agent was added, and exposure was conducted by an automatic exposure machine.

pepsin and trypsin = assay: In vitro digestion test with pepsin and trypsin; type: in vitro ADME; conditions: 500 mg/L; pepsin 20 mg/g pH 2.0 37° C. 90 min, then trypsin 40 mg/g pH 7.5 37° C. 150 min; HPLC or LC-MS
Experimental: A pea-derived peptide aqueous solution and a pea-derived peptide PP2 aqueous solution with a mass concentration of 500 mg/L were prepared separately, pepsin (20 mg/g) was added, a pH value was adjusted to 2.0, and the two aqueous solutions were treated in a water bath at a constant temperature of 37° C. for 90 min. Following the water bath, the pH value was adjusted to 7.5, trypsin (40 mg/g) was added, and the two aqueous solutions were treated in the water bath at a constant temperature of 37° C. for 150 min. Following the water bath, the two solutions were placed in a 95° C. water bath for 5 min to inactivate the enzyme. The samples were freeze-dried and analyzed by HPLC to compare changes in the liquid chromatograms before and after digestion. Also provided were undigested pea-derived peptide and pea-derived peptide digested only by pepsin but not by trypsin.
Pea-derived peptide PP2 was digested in vitro according to the method of Example 4.

Row | Substance | cell concentration compared with CN group (C2C12 cells) | OD value, Average value (C2C12 cells; treatment time 0 h) | OD value, Repeated three groups (C2C12 cells; treatment time 0 h) | OD value, Average value (C2C12 cells; treatment time 12 h) | OD value, Repeated three groups (C2C12 cells; treatment time 12 h) | OD value, Average value (C2C12 cells; treatment time 24 h) | OD value, Repeated three groups (C2C12 cells; treatment time 24 h) | OD value, Average value (C2C12 cells; treatment time 36 h) | OD value, Repeated three groups (C2C12 cells; treatment time 36 h) | OD value, Average value (C2C12 cells; treatment time 48 h) | OD value, Repeated three groups (C2C12 cells; treatment time 48 h) | expression of IGF-1R, cyclinD1, CDK6 and p-AMPK [1] | stability after digestion by pepsin and trypsin (pepsin and trypsin)
1 | EGSLLLPH | increases significantly | 0.35 | 0.28 and 0.35 and 0.41 | 0.53 | 0.52 and 0.66 and 0.42 | 1.26 | 1.24 and 1.07 and 1.48 | 1.73 | 1.77 and 1.62 and 1.81 | 1.95 | 1.96 and 1.78 and 2.10 | significantly increase expression | 
2 | LDLPVL [PP2, Leu-Asp-Leu-Pro-Val-Leu] |  |  |  |  |  |  |  |  |  |  |  |  | not digested and degraded by the pepsin and trypsin
3 | LLYVIR | increases significantly | 0.38 | 0.36 and 0.52 and 0.27 | 0.50 | 0.42 and 0.51 and 0.56 | 1.34 | 1.08 and 1.62 and 1.32 | 1.84 | 1.95 and 1.83 and 1.74 | 2.11 | 2.07 and 2.32 and 1.95 | significantly increase expression | 
4 | NTNYEEIEKVL | increases significantly | 0.36 | 0.44 and 0.27 and 0.36 | 0.557 | 0.43 and 0.53 and 0.71 | 1.42 | 1.41 and 1.66 and 1.19 | 1.88 | 1.72 and 2.06 and 1.86 | 2.12 | 1.98 and 2.32 and 2.05 | significantly increase expression | 
5 | TNYEEIEKVLL | increases significantly | 0.33 | 0.41 and 0.37 and 0.22 | 0.56 | 0.54 and 0.45 and 0.68 | 1.33 | 1.31 and 1.06 and 1.62 | 1.86 | 2.03 and 1.67 and 1.89 | 2.09 | 1.87 and 2.11 and 2.28 | significantly increase expression | 

Reference: patent US11951155B2, “Pea-derived peptide with muscle-building effect and preparation method thereof, and drug and use” (Zhongshi Duqing(Shandong) Biotech Co., Ltd, priority 2022, dated 2024)
